The supplement of paper PMC8149375

What was measured:
Conditions in all cases: treatment: drug + dasatinib (fixed dose, not stated); 5 days
[1] = tested on: 769-P; experiment: GI50 of drug in presence of dasatinib; higher = less potent
Experimental: (§1)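 Primary HTS combination arm: 8 RCC cell lines treated with 8 doses (up to 10 uM) of each library drug plus a fixed dose of dasatinib (dose not stated) for 5 days; viability read by CellTiter-Glo and normalised to DMSO. GI50 was fitted with XLfit, AUC is the area under the dose-response curve, and minimum viability is the lowest fraction of DMSO viability across doses.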

[2] = tested on: 786-O; experiment: as above
Experimental: as §1

[3] = tested on: A498; experiment: as above
Experimental: as §1

[4] = tested on: ACHN; experiment: as above
Experimental: as §1

[5] = tested on: CAKI-1; experiment: as above
Experimental: as §1

[6] = tested on: SN12C; experiment: as above
Experimental: as §1

[7] = tested on: TK-10; experiment: as above
Experimental: as §1

[8] = tested on: UO-31; experiment: as above
Experimental: as §1

[9] = tested on: 769-P; experiment: minimum viability across doses, drug + dasatinib, relative to DMSO (fraction); higher = less growth inhibition
Experimental: as §1

[10] = tested on: 786-O; experiment: as above
Experimental: as §1

[11] = tested on: A498; experiment: as above
Experimental: as §1

[12] = tested on: ACHN; experiment: as above
Experimental: as §1

[13] = tested on: CAKI-1; experiment: as above
Experimental: as §1

[14] = tested on: SN12C; experiment: as above
Experimental: as §1

[15] = tested on: TK-10; experiment: as above
Experimental: as §1

[16] = tested on: UO-31; experiment: as above
Experimental: as §1

[17] = tested on: 769-P; experiment: AUC of dose-response viability curve, drug + dasatinib, normalised to DMSO (arbitrary (AUC of normalised viability)); higher = less growth inhibition
Experimental: as §1

[18] = tested on: 786-O; experiment: as above
Experimental: as §1

[19] = tested on: A498; experiment: as above
Experimental: as §1

[20] = tested on: ACHN; experiment: as above
Experimental: as §1

[21] = tested on: CAKI-1; experiment: as above
Experimental: as §1

[22] = tested on: SN12C; experiment: as above
Experimental: as §1

[23] = tested on: TK-10; experiment: as above
Experimental: as §1

[24] = tested on: UO-31; experiment: as above
Experimental: as §1

With CC[C@@H]1C(=O)N(C)c2cnc(Nc3ccc(C(=O)N[C@H]4CC[C@H](N5CCN(CC6CC6)CC5)CC4)cc3OC)nc2N1C(C)C [BI6727 (Volasertib)] + Cc1nc(Nc2ncc(C(=O)Nc3c(C)cccc3Cl)s2)cc(N2CCN(CCO)CC2)n1 [dasatinib] the GI50 of drug [1] was 43.2 nM, the GI50 of drug [2] was 10.5 nM and the GI50 of drug [3] was 138 nM. The GI50 of drug [4] was 27.8 nM, the GI50 of drug [5] was 55.2 nM and the GI50 of drug [6] was 58.6 nM. The GI50 of drug [7] was 160 nM, the GI50 of drug [8] was 151 nM and the “minimum viability across doses” value [9] was 0.0202. The “minimum viability across doses” value [10] was 0.0043, the “minimum viability across doses” value [11] was 0.0361 and the “minimum viability across doses” value [12] was 0.00653. The “minimum viability across doses” value [13] was 0.00782, the “minimum viability across doses” value [14] was 0.0772 and the “minimum viability across doses” value [15] was 0.00827. For the same compound, the “minimum viability across doses” value [16] was 0.0151, the “AUC of dose-response viability curve” value [17] was 1.16 and the “AUC of dose-response viability curve” value [18] was 0.664. For the same compound, the “AUC of dose-response viability curve” value [19] was 1.83, the “AUC of dose-response viability curve” value [20] was 1.13 and the “AUC of dose-response viability curve” value [21] was 1.25. For the same compound, the “AUC of dose-response viability curve” value [22] was 1.37, the “AUC of dose-response viability curve” value [23] was 1.61 and the “AUC of dose-response viability curve” value [24] was 2.02.
Compound CC[C@@H]1C(=O)N(C)c2cnc(Nc3ccc(C(=O)NC4CCN(C)CC4)cc3OC)nc2N1C1CCCC1 [BI 2536] + Cc1nc(Nc2ncc(C(=O)Nc3c(C)cccc3Cl)s2)cc(N2CCN(CCO)CC2)n1 [dasatinib] has a GI50 of drug [1] of 56.8 nM, a GI50 of drug [2] of 8.79 nM and a GI50 of drug [3] of 38.4 nM. The GI50 of drug [4] was 4.47 nM, the GI50 of drug [5] was 7.85 nM and the GI50 of drug [6] was 32.1 nM. For the same compound, the GI50 of drug [7] was 405 nM, the GI50 of drug [8] was 61.4 nM and the “minimum viability across doses” value [9] was 0.0343. The “minimum viability across doses” value [10] was 0.0183, the “minimum viability across doses” value [11] was 0.0692 and the “minimum viability across doses” value [12] was 0.0392. For the same compound, the “minimum viability across doses” value [13] was 0.0866, the “minimum viability across doses” value [14] was 0.052 and the “minimum viability across doses” value [15] was 0.0551. The “minimum viability across doses” value [16] was 0.0114, the “AUC of dose-response viability curve” value [17] was 1.28 and the “AUC of dose-response viability curve” value [18] was 0.643. The “AUC of dose-response viability curve” value [19] was 1.51, the “AUC of dose-response viability curve” value [20] was 0.778 and the “AUC of dose-response viability curve” value [21] was 0.981. The “AUC of dose-response viability curve” value [22] was 1.24, the “AUC of dose-response viability curve” value [23] was 1.68 and the “AUC of dose-response viability curve” value [24] was 1.3.
Work on COC(=O)c1ccc2c(c1)NC(=O)/C2=C(\Nc1ccc(N(C)C(=O)CN2CCN(C)CC2)cc1)c1ccccc1 [BIBF1120 (Vargatef)] + Cc1nc(Nc2ncc(C(=O)Nc3c(C)cccc3Cl)s2)cc(N2CCN(CCO)CC2)n1 [dasatinib] yielded a GI50 of drug [1] greater than 10000 nM, a GI50 of drug [2] greater than 10000 nM and a GI50 of drug [3] greater than 10000 nM. For the same compound, the GI50 of drug [4] was 147 nM, the GI50 of drug [5] was 430 nM and the GI50 of drug [6] was 2620 nM. The GI50 of drug [7] was greater than 10000 nM, the GI50 of drug [8] was 1730 nM and the “minimum viability across doses” value [9] was 0.656. The “minimum viability across doses” value [10] was 0.694, the “minimum viability across doses” value [11] was 0.664 and the “minimum viability across doses” value [12] was 0.23. For the same compound, the “minimum viability across doses” value [13] was 0.125, the “minimum viability across doses” value [14] was 0.412 and the “minimum viability across doses” value [15] was 0.637. The “minimum viability across doses” value [16] was 0.128, the “AUC of dose-response viability curve” value [17] was 2.47 and the “AUC of dose-response viability curve” value [18] was 2.98. The “AUC of dose-response viability curve” value [19] was 3.35, the “AUC of dose-response viability curve” value [20] was 1.73 and the “AUC of dose-response viability curve” value [21] was 1.77. For the same compound, the “AUC of dose-response viability curve” value [22] was 2.3, the “AUC of dose-response viability curve” value [23] was 2.88 and the “AUC of dose-response viability curve” value [24] was 2.64.
Work on Nc1cc(C(F)(F)F)c(-c2cc(N3CCOCC3)nc(N3CCOCC3)n2)cn1 [BKM120 (NVP-BKM120)] + Cc1nc(Nc2ncc(C(=O)Nc3c(C)cccc3Cl)s2)cc(N2CCN(CCO)CC2)n1 [dasatinib] yielded a GI50 of drug [1] of 478 nM, a GI50 of drug [2] of 81.7 nM and a GI50 of drug [3] of 1250 nM. It also gave a GI50 of drug [4] of 205 nM, a GI50 of drug [5] of 244 nM and a GI50 of drug [6] of 914 nM. For the same compound, the GI50 of drug [7] was 505 nM, the GI50 of drug [8] was 663 nM and the “minimum viability across doses” value [9] was 0.0577. For the same compound, the “minimum viability across doses” value [10] was 0.00305, the “minimum viability across doses” value [11] was 0.101 and the “minimum viability across doses” value [12] was 0.0632. The “minimum viability across doses” value [13] was 0.0204, the “minimum viability across doses” value [14] was 0.0529 and the “minimum viability across doses” value [15] was 0.0741. The “minimum viability across doses” value [16] was 0.00967, the “AUC of dose-response viability curve” value [17] was 1.83 and the “AUC of dose-response viability curve” value [18] was 1.29. For the same compound, the “AUC of dose-response viability curve” value [19] was 2.49, the “AUC of dose-response viability curve” value [20] was 1.48 and the “AUC of dose-response viability curve” value [21] was 1.51. The “AUC of dose-response viability curve” value [22] was 1.84, the “AUC of dose-response viability curve” value [23] was 1.84 and the “AUC of dose-response viability curve” value [24] was 2.27.
For CC(C)c1cnn2c(NCc3ccccc3)cc(NCCCCCCN)nc12.Cl [BS-181 HCl] + Cc1nc(Nc2ncc(C(=O)Nc3c(C)cccc3Cl)s2)cc(N2CCN(CCO)CC2)n1 [dasatinib], the GI50 of drug [1] was greater than 10000 nM, the GI50 of drug [2] was 7190 nM and the GI50 of drug [3] was greater than 10000 nM. It also gave a GI50 of drug [4] of 2870 nM, a GI50 of drug [5] greater than 10000 nM and a GI50 of drug [6] greater than 10000 nM. The GI50 of drug [7] was greater than 10000 nM, the GI50 of drug [8] was greater than 10000 nM and the “minimum viability across doses” value [9] was 0.672. The “minimum viability across doses” value [10] was 0.438, the “minimum viability across doses” value [11] was 0.942 and the “minimum viability across doses” value [12] was 0.344. The “minimum viability across doses” value [13] was 0.6, the “minimum viability across doses” value [14] was 0.67 and the “minimum viability across doses” value [15] was 0.657. The “minimum viability across doses” value [16] was 1.11, the “AUC of dose-response viability curve” value [17] was 2.55 and the “AUC of dose-response viability curve” value [18] was 2.72. For the same compound, the “AUC of dose-response viability curve” value [19] was 3.45, the “AUC of dose-response viability curve” value [20] was 1.94 and the “AUC of dose-response viability curve” value [21] was 2.34. The “AUC of dose-response viability curve” value [22] was 2.46, the “AUC of dose-response viability curve” value [23] was 2.63 and the “AUC of dose-response viability curve” value [24] was 4.39.
O=C(NCCCNc1nc(Nc2cccc(NC(=O)N3CCCC3)c2)ncc1I)c1cccs1 [BX-795] + Cc1nc(Nc2ncc(C(=O)Nc3c(C)cccc3Cl)s2)cc(N2CCN(CCO)CC2)n1 [dasatinib] showed a GI50 of drug [1] of 1590 nM, a GI50 of drug [2] of 695 nM and a GI50 of drug [3] greater than 10000 nM. It also gave a GI50 of drug [4] of 411 nM, a GI50 of drug [5] of 457 nM and a GI50 of drug [6] of 4410 nM. For the same compound, the GI50 of drug [7] was 1780 nM, the GI50 of drug [8] was 3020 nM and the “minimum viability across doses” value [9] was 0.0706. The “minimum viability across doses” value [10] was 0.00318, the “minimum viability across doses” value [11] was 0.74 and the “minimum viability across doses” value [12] was 0.155. For the same compound, the “minimum viability across doses” value [13] was 0.0814, the “minimum viability across doses” value [14] was 0.334 and the “minimum viability across doses” value [15] was 0.0986. The “minimum viability across doses” value [16] was 0.015, the “AUC of dose-response viability curve” value [17] was 2.08 and the “AUC of dose-response viability curve” value [18] was 1.72. For the same compound, the “AUC of dose-response viability curve” value [19] was 3.06, the “AUC of dose-response viability curve” value [20] was 1.74 and the “AUC of dose-response viability curve” value [21] was 1.77. The “AUC of dose-response viability curve” value [22] was 2.44, the “AUC of dose-response viability curve” value [23] was 2.09 and the “AUC of dose-response viability curve” value [24] was 3.15.
O=C(Nc1cccc(Nc2ncc(Br)c(NCCc3cnc[nH]3)n2)c1)N1CCCC1 [BX-912] + Cc1nc(Nc2ncc(C(=O)Nc3c(C)cccc3Cl)s2)cc(N2CCN(CCO)CC2)n1 [dasatinib] showed a GI50 of drug [1] of 4600 nM, a GI50 of drug [2] of 937 nM and a GI50 of drug [3] of 5820 nM. For the same compound, the GI50 of drug [4] was 1280 nM, the GI50 of drug [5] was 502 nM and the GI50 of drug [6] was 1180 nM. For the same compound, the GI50 of drug [7] was 2590 nM, the GI50 of drug [8] was 9130 nM and the “minimum viability across doses” value [9] was 0.335. The “minimum viability across doses” value [10] was 0.0673, the “minimum viability across doses” value [11] was 0.365 and the “minimum viability across doses” value [12] was 0.168. For the same compound, the “minimum viability across doses” value [13] was 0.0425, the “minimum viability across doses” value [14] was 0.0907 and the “minimum viability across doses” value [15] was 0.144. For the same compound, the “minimum viability across doses” value [16] was 0.288, the “AUC of dose-response viability curve” value [17] was 2.3 and the “AUC of dose-response viability curve” value [18] was 1.78. The “AUC of dose-response viability curve” value [19] was 2.97, the “AUC of dose-response viability curve” value [20] was 1.9 and the “AUC of dose-response viability curve” value [21] was 1.8. The “AUC of dose-response viability curve” value [22] was 2.23, the “AUC of dose-response viability curve” value [23] was 2.25 and the “AUC of dose-response viability curve” value [24] was 3.19.
